The results in this text go back to patent US11407721B2, “CIS-morpholinone and other compounds as MDM2 inhibitors for the treatment of cancer” (AMGEN INC., priority 2013, dated 2022).

Molecules are shown by their SMILES. Read-outs that look alike come from different tables or passages of the source.

The assay addresses interaction between HDM2 and p53 (GST-hMDM2 (1-188) / biotinylated-p53 (1-83)) (Homo sapiens (Human), UniProt Q00987). Briefly: HTRF2 Assay (improved HTRF assay). The note with it: read-out: HTRF2 IC50. The class given is binding. For orientation: In TR-FRET formats the signal depends on donor and acceptor labels being close together.
Setting [1] is: 0.2 nM GST-hMDM2 (1-188), 0.5 nM biotinylated-p53 (1-83), 100 mM KF.

Chain of interaction between HDM2 and p53 (GST-hMDM2 (1-188) / biotinylated-p53 (1-83)) (Q00987 1-188): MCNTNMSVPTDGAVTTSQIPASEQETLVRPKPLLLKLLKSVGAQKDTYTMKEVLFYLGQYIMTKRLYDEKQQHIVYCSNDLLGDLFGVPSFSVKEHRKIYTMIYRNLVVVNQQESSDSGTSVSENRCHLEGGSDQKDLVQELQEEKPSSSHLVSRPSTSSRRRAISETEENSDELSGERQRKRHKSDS

With `CCC[C@H](CCC(=O)O)N1C(=O)[C@H](Cc2ccc(F)cc2)O[C@@H](c2ccc(Cl)cc2)[C@H]1c1ccc(Cl)cc1` (mixture of isomers) [Example 31, (R)-4-((2S,3R,6S)-2,3-Bis(4-chlorophenyl)-6-(4-fluorobenzyl)-5-oxomorpholino)heptanoic acid and (S)-4-((2R,3S,6R)-2,3-bis(4-chlorophenyl)-6-(4-fluorobenzyl)-5-oxomorpholino)heptanoic acid], the IC50 (commonly the concentration needed to halve the response being measured) was determined as 1330 nM.
In the case of `CS(=O)(=O)c1ccc(C[C@@H]2O[C@@H](c3ccc(Cl)cc3)[C@@H](c3ccc(Cl)cc3)N(c3cccnc3)C2=O)c(F)c1` (mixture of isomers) [Example 63, (2S,5R,6S)-5,6-Bis(4-chlorophenyl)-2-(2-fluoro-4-(methylsulfonyl)benzyl)-4-(pyridin-3-yl)morpholin-3-one and (2R,5S,6R)-5,6-bis(4-chlorophenyl)-2-(2-fluoro-4-(methylsulfonyl)benzyl)-4-(pyridin-3-yl)morpholin-3-one], the IC50 was 20000 nM.
Consider `O=C1[C@H](Cc2ccc(F)cc2)O[C@@H](c2ccc(Cl)cc2)[C@@H](c2ccc(Cl)cc2)N1c1ccnc(Cl)c1` (racemic) [Example 58, (2S,5R,6S)-5,6-Bis(4-chlorophenyl)-4-(2-chloropyridin-4-yl)-2-(4-fluorobenzyl)morpholin-3-one and (2R,5S,6R)-5,6-bis(4-chlorophenyl)-4-(2-chloropyridin-4-yl)-2-(4-fluorobenzyl)morpholin-3-one], for which the IC50 stood at 5000 nM.
On the same count and under the same terms, in the case of `CS(=O)(=O)c1ccc(C[C@@H]2O[C@@H](c3ccc(Cl)cc3)[C@@H](c3ccc(Cl)cc3)N(c3cccnc3)C2=O)cc1` (racemic) [Example 62, (2S,5R,6S)-5,6-Bis(4-chlorophenyl)-2-(4-(methylsulfonyl)benzyl)-4-(pyridin-3-yl)morpholin-3-one and (2R,5S,6R)-5,6-bis(4-chlorophenyl)-2-(4-(methylsulfonyl)benzyl)-4-(pyridin-3-yl)morpholin-3-one] it was 15800 nM.
In the case of `CCC[C@H](C(=O)NCCCC(=O)O)N1C(=O)[C@H](Cc2ccc(S(C)(=O)=O)cc2)O[C@@H](c2ccc(Cl)cc2)[C@H]1c1ccc(Cl)cc1` [4-(((2R)-2-((2S,3R,6S)-2,3-bis(4-chlorophenyl)-6-(4-(methylsulfonyl)benzyl)-5-oxo-4-morpholinyl)pentanoyl)amino)butanoic acid], the IC50 under setting [1] was 2440 nM.
With `CCC[C@H](C(=O)O)N1C(=O)[C@H](CCN2CCCCC2)O[C@@H](c2ccc(Cl)cc2)[C@H]1c1ccc(Cl)cc1` [(2R)-2-((2S,3R,6S)-2,3-bis(4-chlorophenyl)-5-oxo-6-(2-(1-piperidinyl)ethyl)-4-morpholinyl)pentanoic acid], under setting [1], the IC50 came out at 1730 nM.
As for `CCC[C@H](C(=O)O)N1C(=O)[C@H](CCN2CCN(C)CC2)O[C@@H](c2ccc(Cl)cc2)[C@H]1c1ccc(Cl)cc1` [(2R)-2-((2S,3R,6S)-2,3-bis(4-chlorophenyl)-6-(2-(4-methyl-1-piperazinyl)ethyl)-5-oxo-4-morpholinyl)pentanoic acid], under setting [1], the IC50 came out at 790 nM.
Still for that read-out and setting: in the case of `CCC[C@H](C(=O)O)N1C(=O)[C@H](CCN2CCOCC2)O[C@@H](c2ccc(Cl)cc2)[C@H]1c1ccc(Cl)cc1` [(2R)-2-((2S,3R,6S)-2,3-bis(4-chlorophenyl)-6-(2-(4-morpholinyl)ethyl)-5-oxo-4-morpholinyl)pentanoic acid] it was 1490 nM; in that of `CCC[C@H](C(=O)O)N1C(=O)[C@H](Cc2ccccc2OC)O[C@@H](c2ccc(Cl)cc2)[C@H]1c1ccc(Cl)cc1` [(2R)-2-((2S,3R,6S)-2,3-bis(4-chlorophenyl)-6-(2-methoxybenzyl)-5-oxo-4-morpholinyl)pentanoic acid], 496 nM.
Turning to `CCC[C@H](C(=O)O)N1C(=O)[C@H](CCCn2ccnc2)O[C@@H](c2ccc(Cl)cc2)[C@H]1c1ccc(Cl)cc1` [(2R)-2-((2S,3R,6S)-2,3-bis(4-chlorophenyl)-6-(3-(1H-imidazol-1-yl)propyl)-5-oxo-4-morpholinyl)pentanoic acid], the IC50 under setting [1] was 973 nM.
As for `CCC[C@H](C(=O)O)N1C(=O)[C@H](CCCO)O[C@@H](c2ccc(Cl)cc2)[C@H]1c1ccc(Cl)cc1` [(2R)-2-((2S,3R,6S)-2,3-bis(4-chlorophenyl)-6-(3-hydroxypropyl)-5-oxo-4-morpholinyl)pentanoic acid], the IC50 under setting [1] is 3010 nM.
In the case of `CCC[C@H](C(=O)O)N1C(=O)[C@H](Cc2cccc(OC)c2)O[C@@H](c2ccc(Cl)cc2)[C@H]1c1ccc(Cl)cc1` [(2R)-2-((2S,3R,6S)-2,3-bis(4-chlorophenyl)-6-(3-methoxybenzyl)-5-oxo-4-morpholinyl)pentanoic acid], the IC50 under setting [1] was 1110 nM.
Regarding `CCC[C@H](CC(=O)O)N1C(=O)[C@@H](Cc2ccc(F)cc2)O[C@H](c2cccc(Cl)c2)[C@@H]1c1ccc(Cl)cc1` [(3R)-3-((2R,3S,6R)-2-(3-chlorophenyl)-3-(4-chlorophenyl)-6-(4-fluorobenzyl)-5-oxo-4-morpholinyl)hexanoic acid], under setting [1], the IC50 amounted to 1150 nM.
`CCC[C@H](CC(=O)O)N1C(=O)[C@H](Cc2ccc(F)cc2)O[C@@H](c2cccc(Cl)c2)[C@H]1c1ccc(Cl)cc1` [(3R)-3-((2S,3R,6S)-2-(3-chlorophenyl)-3-(4-chlorophenyl)-6-(4-fluorobenzyl)-5-oxo-4-morpholinyl)hexanoic acid]: under setting [1], the IC50 was determined as 3660 nM.
In the case of `CCC[C@H](CCC(=O)O)N1C(=O)CO[C@H](c2ccc(Cl)cc2)[C@@H]1c1ccc(Cl)cc1` [(4R)-4-((2R,3S)-2,3-bis(4-chlorophenyl)-5-oxo-4-morpholinyl)heptanoic acid], the IC50 under setting [1] worked out at 4140 nM.
Consider `CCC[C@H](CCC(=O)O)N1C(=O)CO[C@@H](c2ccc(Cl)cc2)[C@H]1c1ccc(Cl)cc1` [(4R)-4-((2S,3R)-2,3-bis(4-chlorophenyl)-5-oxo-4-morpholinyl)heptanoic acid], for which the IC50 under setting [1] turned out to be 24700 nM.
Take `O=C1CO[C@@H](c2ccc(Cl)cc2)[C@@H](c2ccc(Cl)cc2)N1c1cc(Cl)nc(Cl)c1` [(5R,6S)-5,6-bis(4-chlorophenyl)-4-(2,6-dichloro-4-pyridinyl)-3-morpholinone]: the IC50 under setting [1] was determined as 63000 nM.
For the compound `O=C1CO[C@@H](c2ccc(Cl)cc2)[C@@H](c2ccc(Cl)cc2)N1c1ccnc(Cl)c1` [(5R,6S)-5,6-bis(4-chlorophenyl)-4-(2-chloro-4-pyridinyl)-3-morpholinone], under setting [1], the concentration for half-maximal inhibition (IC50) stood at 7180 nM.
As to `O=C1CO[C@@H](c2ccc(Cl)cc2)[C@@H](c2ccc(Cl)cc2)N1c1cnccn1` [(5R,6S)-5,6-bis(4-chlorophenyl)-4-(2-pyrazinyl)-3-morpholinone], the IC50 under setting [1] was 9300 nM.
`CCC[C@H](C(=O)O)N1C(=O)[C@H](Cc2ccccc2)O[C@@H](c2ccc(Cl)cc2)[C@H]1c1ccc(Cl)cc1` [Example 44, (R)-2-((2S,5R,6S)-2-Benzyl-5,6-bis(4-chlorophenyl)-3-oxomorpholino)pentanoic acid]: under setting [1], the concentration for half-maximal inhibition (IC50) stood at 757 nM.
As to `CCC[C@H](C(=O)O)N1C(=O)[C@H](Cc2ccc(F)cc2C#N)O[C@@H](c2ccc(Cl)cc2)[C@H]1c1ccc(Cl)cc1` [Example 45, (R)-2-((2S,3R,6S)-2,3-Bis(4-chlorophenyl)-6-(2-cyano-4-fluorobenzyl)-5-oxomorpholino)pentanoic acid], the 50% inhibitory concentration (IC50) under setting [1] is 466 nM.
The same measure, in the same setting: in the case of `CCC[C@H](C(=O)O)N1C(=O)[C@H](Cc2ccccc2C#N)O[C@@H](c2ccc(Cl)cc2)[C@H]1c1ccc(Cl)cc1` [Example 46, (R)-2-((2S,3R,6S)-2,3-Bis(4-chlorophenyl)-6-(2-cyanobenzyl)-5-oxomorpholino)pentanoic acid] it was 259 nM.
Regarding `CCC[C@H](C(=O)O)N1C(=O)[C@H](Cc2ccccc2F)O[C@@H](c2ccc(Cl)cc2)[C@H]1c1ccc(Cl)cc1` [Example 47, (R)-2-((2S,3R,6S)-2,3-Bis(4-chlorophenyl)-6-(2-fluorobenzyl)-5-oxomorpholino)pentanoic acid], the IC50 under setting [1] amounted to 400 nM.
Still for that read-out and setting: the value for `CCC[C@H](C(=O)O)N1C(=O)[C@H](Cc2cccc(F)c2)O[C@@H](c2ccc(Cl)cc2)[C@H]1c1ccc(Cl)cc1` [Example 48, (R)-2-((2S,3R,6S)-2,3-Bis(4-chlorophenyl)-6-(3-fluorobenzyl)-5-oxomorpholino)pentanoic acid] was 420 nM.
As to `CCC[C@H](C(=O)O)N1C(=O)[C@H](Cc2cccc(C#N)c2)O[C@@H](c2ccc(Cl)cc2)[C@H]1c1ccc(Cl)cc1` [Example 49, (R)-2-((2S,3R,6S)-2,3-Bis(4-chlorophenyl)-6-(3-cyanobenzyl)-5-oxomorpholino)pentanoic acid], the IC50 under setting [1] turned out to be 561 nM.
In the case of `CCC[C@H](C(=O)O)N1C(=O)[C@H](Cc2cccc(S(C)(=O)=O)c2)O[C@@H](c2ccc(Cl)cc2)[C@H]1c1ccc(Cl)cc1` [Example 50, (R)-2-((2S,3R,6S)-2,3-Bis(4-chlorophenyl)-6-(3-(methylsulfonyl)benzyl)-5-oxomorpholino)pentanoic acid], the IC50 under setting [1] came to 568 nM.
With `CCC[C@H](C(=O)O)N1C(=O)[C@H](Cc2ccccc2S(C)(=O)=O)O[C@@H](c2ccc(Cl)cc2)[C@H]1c1ccc(Cl)cc1` [Example 51, (R)-2-((2S,3R,6S)-2,3-Bis(4-chlorophenyl)-6-(2-(methylsulfonyl)benzyl)-5-oxomorpholino)pentanoic acid], under setting [1], the IC50 came to 676 nM.
With `CCC[C@H](C(=O)O)N1C(=O)[C@H](Cc2ccc(F)cc2S(C)(=O)=O)O[C@@H](c2ccc(Cl)cc2)[C@H]1c1ccc(Cl)cc1` [Example 52, (R)-2-((2S,3R,6S)-2,3-Bis(4-chlorophenyl)-6-(4-fluoro-2-(methylsulfonyl)benzyl)-5-oxomorpholino)pentanoic acid], under setting [1], the IC50 came to 279 nM.
Consider `CCC[C@H](C(=O)O)N1C(=O)[C@H](Cc2ccc(S(C)(=O)=O)c(F)c2)O[C@@H](c2ccc(Cl)cc2)[C@H]1c1ccc(Cl)cc1` [Example 53, (R)-2-((2S,3R,6S)-2,3-Bis(4-chlorophenyl)-6-(3-fluoro-4-(methylsulfonyl)benzyl)-5-oxomorpholino)pentanoic acid], for which, under setting [1], the IC50 amounted to 276 nM.
